Row | SMILES | melting point
1 | O=C(O)C1CCCN1S(=O)(=O)c1ccccc1 (configuration not stated) | 79 to 81 °C
2 | O=C1CCc2cc(Br)ccc2N1 | 169 to 171 °C
3 | CS(=O)(=O)N1CCN(c2ccc(N)cn2)CC1 | 178 to 180 °C
4 | CCn1c(SCC(=O)O)nnc1-c1ccco1 | 173 to 175 °C
5 | Cc1ccc(S(=O)(=O)OC2CCS(=O)(=O)C2)cc1 (configuration not stated) | 80 to 82 °C
6 | O=C(O)CS(=O)(=O)Cc1ccc(Br)cc1 | 156 to 158 °C
7 | O=S1(=O)CCCN1c1cccc(Cl)c1 | 85 to 87 °C
8 | CC(CO)CC(C)(C)N (configuration not stated) | 64 to 66 °C
9 | O=C(O)C=Cc1ccc(Cl)nc1 | 209 to 211 °C
10 | Cc1ccc(NC(=O)C2(CN)CCCC2)cc1C | 113 to 115 °C
11 | O=C1CCOc2c(Cl)ccc(Cl)c21 | 67 to 69 °C
12 | O=C(O)c1ccc(F)cc1-c1ccc(Cl)c(Cl)c1 | 179 to 181 °C
13 | O=C(O)c1ccc(Oc2cccc(F)c2[N+](=O)[O-])c(Cl)c1 | 169 to 171 °C
14 | O=C(O)c1cc2c([nH]1)CCC2 | 109 to 111 °C
15 | Cc1ccc(-c2nc(CCl)co2)cc1 | 97 to 99 °C
16 | Cn1nc(C2CCCCC2)cc1N | 169 to 171 °C
17 | Cn1ccnc1C(O)(CCN)C(F)(F)F (configuration not stated) | 115 to 117 °C
18 | COc1cc(C(=O)O)cc(OC)c1OCc1ccccc1 | 155 to 159 °C
19 | N#CCOc1ccc(N)cc1 | 51 to 53 °C

Row | SMILES | melting point
20 | Cc1[nH]c(C(=O)O)c(C)c1C | 80 to 82 °C
21 | Nc1nc(-c2ccc(F)cc2)cs1 | 111 to 113 °C
22 | COc1cc(F)c([N+](=O)[O-])cc1OC | 139 to 141 °C
23 | Cc1nc(N)sc1Cl | 100 to 102 °C
24 | O=C(O)C1(c2ccc(F)cc2)CCOCC1 | 156 to 158 °C
25 | O=C(O)CCCOc1cccc(F)c1 | 51 to 53 °C
26 | Nc1nc(CN2CCN(c3ccc(F)cc3)CC2)cs1 | 194 to 196 °C
27 | N#Cc1ccc(I)cc1C#N | 140 to 142 °C
28 | CC(Cl)C(=O)NC(c1ccccc1)c1ccccc1 (configuration not stated) | 130 to 139 °C
29 | O=c1cc(-c2ccccc2)c2cc(Cl)ccc2[nH]1 | 257 to 259 °C
30 | Nc1ccc(NC(=O)C2CCCO2)cc1C(F)(F)F (configuration not stated) | 64 to 66 °C
31 | Cc1ccc(N)c(-c2nc(C3CC3)no2)c1 | 87 to 89 °C
32 | Cn1c(N)c(C(=O)CCl)c(=O)[nH]c1=O | 356 to 358 °C
33 | Cc1ccc(S(=O)(=O)NC(C)(C)C)cc1C(=O)O | 180 to 182 °C
34 | N#Cc1ccc(C2OCCO2)cc1 | 45 to 47 °C
35 | Cc1nc(Cl)c2cc[nH]c2n1 | 199 to 201 °C
36 | COCCn1c(S)nc2ccccc21 | 127 to 129 °C
37 | COc1ccc(-c2nn(-c3ccccc3)cc2C=O)cc1 | 135 to 137 °C
38 | O=C(O)c1ccn[nH]1 | 212 to 216 °C

Row | SMILES | melting point
39 | COCCNc1ccc([N+](=O)[O-])cc1C(=O)O | 204 to 206 °C
40 | CC(=O)c1cc(C)cc(C(C)=O)c1O | 50 to 52 °C
41 | Clc1nccn2nnnc12 | 99 to 101 °C
42 | NC(=O)Cc1noc2ccccc12 | 147 to 149 °C
43 | c1nc(N2CCCC2)c2nc[nH]c2n1 | 302 to 304 °C
44 | COc1ncccc1NC(=O)OCC(F)(F)F | 44 to 46 °C
45 | O=[N+]([O-])c1ccc(S(=O)(=O)Cl)cc1Br | 59 to 61 °C
46 | Nc1ccc(-c2nc3ccccc3s2)cn1 | 187 to 189 °C
47 | COCCOc1ccc(Cl)c(C(=O)O)n1 | 89 to 91 °C
48 | Cc1nn(C)c(C(F)F)c1C(=O)O | 165 to 167 °C
49 | Nc1ccc(F)c(NC(=O)C2CCCCC2)c1 | 157 to 159 °C
50 | N#CCCn1cc(C(=O)O)c(-c2ccc([N+](=O)[O-])cc2)n1 | 220 to 222 °C
51 | NC(=S)NCc1ccc(F)cc1 | 119 to 121 °C
52 | C=CCNC(=O)NC(=O)CCl | 113 to 115 °C
53 | O=C(O)c1cn(Cc2cccc(F)c2)nn1 | 189 to 191 °C
54 | Cc1cc(C(=O)O)c(N)s1 | 126 to 128 °C
55 | COC(=O)c1ccc(N)cc1F | 109 to 111 °C
56 | COC(=O)C(C)NC(=O)c1ccc(Cl)c([N+](=O)[O-])c1 (configuration not stated) | 102 to 104 °C
57 | CCOC(=O)c1cc2c(nc1N)CCN(C)C2 | 146 to 148 °C
